In patent US8080529B2, “Macrolides with anti-inflammatory activity” (Glaxo Group Limited, priority 2005, dated 2011):
Where two headings read alike, the source gives them in different places.

Assays:
Assay type in all cases: cell-based
[1] = system: human peripheral blood mononuclear cells (PBMC); test: Effects on human T-cell proliferation in vitro (3H-thymidine incorporation); conditions: Homo sapiens, PBMC, read-out: Percentage of inhibition of proliferation of stimulated PBMC
Description: The influence of the various test compounds at two different concentrations (50 μM and 10 μM) on cell proliferation of human peripheral blood mononuclear cells (PBMC) was assessed. […] The cells were pulsed with 1 μCi of ^3H-thymidine (Amersham, USA) per well during the last 18 h of the culture, and were harvested on the 96-well filter (Packard Bioscience, USA) using a multiple cell harvester (Packard, USA). The incorporation of ^3H-thymidine in activated cells were measured using TopCount NXT (Packard, USA). […] The positive control refers to LPS-, PMA- or zymosan-stimulated samples that were not treated with test compounds.

IL-8 = test: Inhibition of IL-8 production by stimulated human peripheral blood leukocytes in vitro; conditions: Homo sapiens, Leukocyte, read-out: Percentage of inhibition of IL-8 production
Procedure, shortened: (§1)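 Cytokines in supernatants measured by sandwich ELISA after overnight stimulation (2 μg/mL LPS, 1 μg/mL PMA or 120 μg/mL zymosan) of healthy-donor leukocytes pretreated 2 h with 10 or 50 μM compound. Percent inhibition calculated relative to stimulated cells lacking compound.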

Hep G2 = test: Cytotoxicity assay (MTT), Hep G2 cell line; conditions: 24 h
Procedure, shortened: (§2)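 Hep G2 and A549 cells were cultured 24 h at 37° C in RPM medium with test compounds at 50 μM and 12.5 μM. MTT was added for 0.5-2 h and formazan read at 490 nm. Growth value calculated as OD490 treated/OD490 nontreated ×100.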

A549 = test: Cytotoxicity assay (MTT), A549 cell line; conditions: 24 h
Procedure, shortened: as §2

TNF-α = test: Inhibition of TNF-α production by stimulated human peripheral blood leukocytes in vitro; conditions: Homo sapiens, Leukocyte, read-out: Percentage of inhibition of TNF-α production
Procedure, shortened: as §1

IL-6 = test: Inhibition of IL-6 production by stimulated human peripheral blood leukocytes in vitro; conditions: Homo sapiens, Leukocyte, read-out: Percentage of inhibition of IL-6 production
Procedure, shortened: as §1

IL-1α = test: Inhibition of IL-1 production by stimulated human peripheral blood leukocytes in vitro; conditions: Homo sapiens, Leukocyte, read-out: Percentage of inhibition of IL-1α production

SMILES	inhibition at 10 µM ([1]; PHA) [%]	inhibition at 50 µM ([1]; PHA) [%]	inhibition at 10 µM ([1]; PMA + iono.) [%]	inhibition at 50 µM ([1]; PMA + iono.) [%]	inhibition at 10 µM (IL-8; LPS-stimulated PBL) [%]	inhibition at 10 µM (IL-8; PMA-stimulated PBL) [%]	inhibition at 10 µM (IL-8; zymosan-stimulated PBL) [%]	inhibition at 50 µM (IL-8; LPS-stimulated PBL) [%]	inhibition at 50 µM (IL-8; PMA-stimulated PBL) [%]	inhibition at 50 µM (IL-8; zymosan-stimulated PBL) [%]	Percentage of inhibition of cell growth (Hep G2; 12.5 μM) [%]	Percentage of inhibition of cell growth (Hep G2; 50 μM) [%]	Percentage of inhibition of cell growth (A549; 12.5 μM) [%]	Percentage of inhibition of cell growth (A549; 50 μM) [%]	inhibition at 10 µM (TNF-α; LPS-stimulated PBL) [%]	inhibition at 10 µM (TNF-α; PMA-stimulated PBL) [%]	inhibition at 10 µM (TNF-α; zymosan-stimulated PBL) [%]	inhibition at 50 µM (TNF-α; LPS-stimulated PBL) [%]	inhibition at 50 µM (TNF-α; PMA-stimulated PBL) [%]	inhibition at 50 µM (TNF-α; zymosan-stimulated PBL) [%]	further results
CC[C@H]1OC(=O)[C@H](C)[C@@H](O[C@H]2C[C@@](C)(OC)[C@@H](OC(=O)CCN(CC)CC)[C@H](C)O2)[C@H](C)[C@@H](O[C@@H]2O[C@H](C)C[C@H](N(C)C)[C@H]2O)[C@](C)(OC)C[C@@H](C)NC(=O)[C@H](C)[C@@H](O)[C@]1(C)O [Example 3, 4″-O-(3-Diethylamino-Propionyl)-6-O-methyl-8a-aza-8a-homoerythromycin A]	2	75	17	81	48	30	32	71	22	16	0	0	0	0	72	91	76	81	83	96	inhibition at 10 µM (IL-6; LPS-stimulated PBL): 56%; inhibition at 10 µM (IL-6; PMA-stimulated PBL): 60%; inhibition at 10 µM (IL-6; zymosan-stimulated PBL): 44%; inhibition at 50 µM (IL-6; LPS-stimulated PBL): 78%; inhibition at 50 µM (IL-6; PMA-stimulated PBL): 66%; inhibition at 50 µM (IL-6; zymosan-stimulated PBL): 74%; inhibition at 10 µM (IL-1α; LPS-stimulated PBL): 87%; inhibition at 10 µM (IL-1α; PMA-stimulated PBL): 73%; inhibition at 10 µM (IL-1α; zymosan-stimulated PBL): 88%; inhibition at 50 µM (IL-1α; LPS-stimulated PBL): 86%; inhibition at 50 µM (IL-1α; PMA-stimulated PBL): 68%; inhibition at 50 µM (IL-1α; zymosan-stimulated PBL): 91%
CC[C@H]1OC(=O)[C@H](C)[C@@H](O[C@H]2C[C@@](C)(OC)[C@@H](OC(=O)CCN(CC)CC)[C@H](C)O2)[C@H](C)[C@@H](O[C@@H]2O[C@H](C)C[C@H](N(C)C)[C@H]2O)[C@](C)(OC)C[C@@H](C)C(=O)[C@H](C)[C@H]2NC(=O)O[C@@]21C [Example 9, 11,12-Carbamate-11,12-dideoxy-4″-O-(3-diethylamino-propionyl)-6-O-methyl-erythromycin A]	91	100	17	100	18	0	0	96	94	91	4	15	0	0	73	93	14	96	85	72	inhibition at 10 µM (IL-6; LPS-stimulated PBL): 22%; inhibition at 10 µM (IL-6; PMA-stimulated PBL): 30%; inhibition at 10 µM (IL-6; zymosan-stimulated PBL): 0%; inhibition at 50 µM (IL-6; LPS-stimulated PBL): 100%; inhibition at 50 µM (IL-6; PMA-stimulated PBL): 95%; inhibition at 50 µM (IL-6; zymosan-stimulated PBL): 100%; inhibition at 10 µM (IL-1α; LPS-stimulated PBL): 72%; inhibition at 10 µM (IL-1α; PMA-stimulated PBL): 69%; inhibition at 10 µM (IL-1α; zymosan-stimulated PBL): 82%; inhibition at 50 µM (IL-1α; LPS-stimulated PBL): 82%; inhibition at 50 µM (IL-1α; PMA-stimulated PBL): 72%; inhibition at 50 µM (IL-1α; zymosan-stimulated PBL): 0%
